From patent US10370364B1, “Substituted chromenes for treatment of fibrosis or non-alcoholic steatohepatitis” (OSTEONEUROGEN INC., priority 2018, dated 2019)
In brackets after ≈: the same amount, converted by molar mass.

Legend:
CYP2D6 [1] = target: T1, CYP2D6 (Homo sapiens, UniProt P10635); assay: CYP450 inhibition, CYP2D6
CYP3A4 = CYP3A4 (Homo sapiens, UniProt P08684); assay: CYP450 inhibition, CYP3A4
CYP2D6 [2] = target: T1, CYP2D6
Rat liver microsomes = assay: Metabolic stability in rat liver microsomes with NADPH; format: in vitro ADME; settings: Rat liver microsomes
Experimental: (§1) The compound of the present invention was incubated with rat liver microsomes and NADPH, and then the rate of elimination of the compound was measured, thereby determining the intrinsic clearance value (CLint value) of the compound.

[3] = as above; format: in vitro ADME; settings: rat, rat liver microsomes
Experimental: as §1

Snail = Snail expression in A549 cells by real-time PCR; format: cell-based, human; settings: A549, TGF-β plus compound
Experimental: In addition, in order to examine whether the effect as described above would be attributable to the effect against EMT, the expression patterns of Snail and Vimentin, which are representative markers of EMT, in the cells of each test group, were analyzed by real-time PCR.

[4] = Concentration of compound in plasma and lung of bleomycin fibrotic mice; format: in vivo; settings: 1 hour after final administration; pirfenidone 100 mpk, Compound 1 10-100 mpk PO
Experimental: The amounts of the compound present in the plasma and lung of each of the sacrificed mice (finally administered with each compound at 1 hour before sacrifice) were measured. […] If it is attempted to formulate the compound of the present invention in various manners, it is expected that the compound of the present invention can effectively treat fibrosis even at lower concentrations.

physchem = assay: physchem
Experimental: The compound of the present invention was added to phosphate buffer (pH 7.4) at a concentration of 1 mg/ml and stirred. After 16 hours, the sample was filtered through a filter, and the supernatant was analyzed by HPLC-UV, thereby determining the content of compound dissolved.

ONGHEPA1 cells = assay: TGF-β-induced fibrosis of ONGHEPA1 cells (differentiation into myofibroblasts, phase contrast microscope); format: cell-based, rat; settings: TGF-β 5 ng/ml, compound 50 μM in DMSO, 24 hours
Experimental: In order to examine the effect of a compound of the present invention against fibrosis, ONGHEPA1 cells (KCTC13086BP), which are mesenchymal stem cells (MSCs) derived from rat hepatic stellate cells (HSCs) and capable of proliferating indefinitely, were first used. Fibrosis of the ONGHEPA1 cells can be induced by a simple method of treating the cells with TGF-β (transforming growth factor beta) or PDGF (platelet-derived growth factor).
The ONGHEPA1 cells were seeded into medium, cultured for 24 hours, and then treated with TGF-β (5 ng/ml) to induce cell fibrosis. Alternatively, the cells were co-treated with TGF-β and the compound of the present invention (50 μM in DMSO) and cultured for 24 hours. Next, the degree of fibrosis of the cells, that is, the degree of differentiation into myofibroblasts, was examined with a phase contrast microscope (200×).
In this regard, the detailed experimental method followed the paper of Kim et al. (Han-Soo Kim, Jun-Hwan Kim, Ji Yong Lee, Young-Min Yoon, Ik-Hwan Kim, Ho-Sup Yoon, Byung-Soo Youn. Small molecule-mediated reprogramming of epithelial-mesenchymal transition thereby blocking fibrosis. bioRxiv preprint first posted online Feb. 16, 2017; doi: http://dx.doi.org/10.1101/106591).
The effects of the following comparative compounds against fibrosis were examined in the same manner as described in Experimental Example 1-1 above.

STAM mice = assay: Non-alcoholic steatohepatitis animal model (STAM mice), NAFLD activity score; format: in vivo; settings: 50 mpk oral, Formulation Example 2, once a day five times a week
Experimental: STAM mice (SMC Laboratories, Inc., Japan), which are non-alcoholic steatohepatitis animal models, were used as experimental animals. These animal models were administered with streptozotocin immediately after birth, and fed with high-fat-diet after 3 weeks. Then, in the mouse model, non-alcoholic steatohepatitis occurred at 6 to 9 weeks, and liver fibrosis, cirrhosis and liver cancer occurred within 9 to 12 weeks.
Over 6 to 9 weeks after administration of streptozotocin, the compound of the present invention, dissolved in a mixture solution of Tween80 and 0.5% CMC aqueous solution (1:99 (v/v)) (Formulation Example 2), was orally administered to the animal models once a day (five times a week). As controls, telmisartan and OCA (obeticholic acid) were administered in the same manner.
At […] after administration of streptozotocin (a time point after 3-week administration of the compound), the mice were sacrificed, the liver of each mouse was dissected, the invasion of inflammatory cells was observed by […] of the liver tissue, and fibrosis of the liver tissue was observed by Sirius Red staining (see FIG. 42). In addition, the degrees of inflammation, fibrosis, liver cell ballooning and adipose accumulation observed were measured, data integration was performed, and the NAFLD (nonalcoholic fatty liver disease) activity score was statistically processed by t-test.

A549 cell line = assay: TGF-β-induced myofibroblast differentiation of A549 cell line; format: cell-based, human; settings: A549, TGF-β 5 ng/ml, compound 25 or 50 μM, 24 or 48 hours
Experimental: The A549 cell line, which is a lung adenocarcinoma cell line used as a lung EMT-related study model, was seeded into medium, cultured for 24 hours, and then treated with TGF-β (5 ng/ml). Alternatively, the A549 cell line was co-treated with TGF-β and the compound of the present invention (25 or 50 μM in DMSO) and cultured for 24 or 48 hours. Next, the cells were examined with a phase contrast microscope (200×).

T1 sequence (P10635 whole entry): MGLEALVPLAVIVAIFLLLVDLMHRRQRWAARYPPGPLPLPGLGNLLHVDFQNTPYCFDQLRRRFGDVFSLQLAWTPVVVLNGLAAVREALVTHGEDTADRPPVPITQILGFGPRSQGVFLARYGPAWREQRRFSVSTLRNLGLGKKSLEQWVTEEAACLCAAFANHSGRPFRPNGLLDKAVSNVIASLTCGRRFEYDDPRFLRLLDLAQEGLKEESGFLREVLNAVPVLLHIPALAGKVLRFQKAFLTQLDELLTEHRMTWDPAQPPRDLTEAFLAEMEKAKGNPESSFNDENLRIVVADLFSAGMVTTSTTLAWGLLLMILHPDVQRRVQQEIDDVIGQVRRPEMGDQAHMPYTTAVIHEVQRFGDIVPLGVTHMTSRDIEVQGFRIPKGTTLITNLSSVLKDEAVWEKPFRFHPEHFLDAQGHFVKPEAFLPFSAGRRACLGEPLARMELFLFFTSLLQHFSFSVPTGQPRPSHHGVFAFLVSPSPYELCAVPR
Sequence of CYP3A4 (P08684 whole entry): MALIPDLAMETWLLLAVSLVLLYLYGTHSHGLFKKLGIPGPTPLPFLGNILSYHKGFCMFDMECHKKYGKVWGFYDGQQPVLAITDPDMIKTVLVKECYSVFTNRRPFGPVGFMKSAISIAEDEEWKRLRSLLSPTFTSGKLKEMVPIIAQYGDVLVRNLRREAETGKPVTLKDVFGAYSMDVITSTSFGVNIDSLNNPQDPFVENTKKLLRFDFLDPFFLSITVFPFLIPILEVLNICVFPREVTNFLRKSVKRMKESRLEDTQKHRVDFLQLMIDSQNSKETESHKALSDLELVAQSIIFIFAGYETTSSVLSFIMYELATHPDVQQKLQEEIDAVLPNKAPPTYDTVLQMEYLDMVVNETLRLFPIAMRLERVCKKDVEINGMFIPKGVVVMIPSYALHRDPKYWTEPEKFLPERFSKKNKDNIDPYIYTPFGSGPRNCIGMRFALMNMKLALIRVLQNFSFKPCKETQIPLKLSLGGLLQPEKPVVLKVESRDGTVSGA

COc1ccc(-c2cc(=O)c3c(O)c(OC)c(OCCN4CCNC(=O)C4)cc3o2)cc1OC [Compound 1, 4-(2-((2-(3,4-dimethoxyphenyl)-5-hydroxy-6-methoxy-4-oxo-4H-chromen-7-yl)oxy)ethyl)piperazin-2-one]
IC50 (CYP2D6 [1]): > 50 µM | IC50 (CYP3A4; 3A4-midazolam IC50, substrate midazolam): > 50 µM | IC50 (CYP3A4; 3A4-testosterone IC50, substrate testosterone): 49.7 µM | inhibitory activity against CYP2D6 (in words) (CYP2D6 [2]): little or very low inhibitory activity | Clearance value (Rat liver microsomes): Moderate | metabolic stability (in words) (Rat liver microsomes; NADPH): metabolically stable such that it could be comparable with atenolol | microsomal CLint ([3]; read-out: CL int): 19.4 µL/min/mg | half-life ([3]; read-out: t½): 1.19 h | expression of Snail (Snail): significantly inhibited | concentration of the compound in the lung [4]: relatively very low | concentration of the compound in the plasma [4]: relatively very low | solubility in the buffer (in words) (physchem; pH 7.4): lower than that of caffeine, but higher than that of diethyl stilbesterol | solubility at 16 h (physchem; pH 7.4, aqueous buffer, thermodynamic from solid): 9.59 µg/mL (≈ 20.4 µM) | degree of fibrosis of the cells (differentiation into myofibroblasts) (ONGHEPA1 cells): showed no fibrosis symptom | NAFLD activity score (t-test) (STAM mice): statistically significant anti-NASH effects | myofibroblast differentiation (A549 cell line): inhibited
